Test results reported in patent publication US11191820B2, “Method for inducing early T memory response with short peptides anti-tumor vaccine” (OSE IMMUNOTHERAPEUTICS, priority 2015, dated 2021).

What was measured:
Format in all cases: in vivo, human
central memory T cells [1] = assay: Cultured IFN-γ ELISPOT after 10-day in vitro stimulation of PBMC, phase 1/2 colon cancer trial of OSE-2101; design: key to net SFC of vaccine positive CTL responses: —, indicates SFC response did not meet criteria and vaccine response was negative
Protocol: (§1) Clinical study design. Both trials were designed as phase 1/2, open label, multi-center, single dose, multiple administration studies to evaluate the safety and immunogenicity of the OSE-2101 immunotherapy. Patients were treated with 1 ml OSE-2101 every 3 weeks for a total of six doses. Each dose was administered subcutaneously in the same vicinity in the deltoid or upper thigh region, or at a contralateral site if local side-effects were observed. The study duration for each completed patient was 18 weeks. Clinical responses or patient survival were not measured in either phase 1/2 studies.
(§2) Clinical sample processing. Blood or leukapheresis product was obtained from patients at the pre-treatment, the Week 9 and Week 18 time points, 3 weeks after the third and sixth dose of OSE-2101 respectively. Peripheral blood mononuclear cells (PBMC) were isolated from samples within 24 hours of collection using a FICOLL-PAQUE density gradient and cryopreserved in containers designed to ensure optimal freezing (Mr. Frosty, Nalgene). For use, cells were rapidly thawed at 37° C. then transferred to human AB serum-containing medium for work-up.
(§3) Measurement of central T memory cells responses and T effector memory cells. The CTL responses in 16 total patients (10 colon and six NSCLC) were monitored for CTL responses against each epitope and against the wild-type epitope of epitopes analogs. For each patient, the pre-treatment, Week 9 and Week 18 time points were batch-tested in the same experiment to allow pre- versus post-treatment response comparison in the same experiment. Central T memory cells responses were measured using an IFN-γ enzyme-linked immunospot (cultured ELISPOT) assay following in vitro stimulation of PBMC for 10 days with each vaccine epitope. Briefly, PBMC from each time point were stimulated on day 0 with 10 μg/ml of each epitope individually in replicate in 48-well culture plates (2×10^6 PBMC/well). All cultures were fed with rIL-2 (Endogen, Woburn, Mass.; 10 U/ml final concentration) on days 1, 4 and 7. Ten days after initiation of culture, cells were harvested and tested for activity against specific vaccine peptides and corresponding wild-type peptides of vaccine analogs in the T memory ELISPOT assay. Cells were tested in Millipore IP 96-well plates pre-coated with mouse anti-human IFN-γ antibody (Mabtech USA, Cincinnati, Ohio). Five×10^4 cells and 1.25×10^4 cells from each culture were plated in triplicate wells together with 10^5 irradiated autologous PBMC and 10 μg/ml peptide. As a control, CTL were also tested against an irrelevant HLA-A2.1-binding HBV peptide. After 20 hours incubation, T memory ELISPOT plates were developed by performing sequential incubations with biotinylated anti-human IFN-γ antibody (Mabtech USA), Avidin-Peroxidase Complex (APC, Vector Laboratories, Burlingame, Calif.), and 3-amino-9-ethyl carbazole (AEC) substrate (Sigma Aldrich, St. Louis, Mo.). Spot-forming cells (SFC) were enumerated using a computer-assisted image analysis system (Zeiss KS ELISPOT Reader, Carl Zeiss MicroImaging, Thornwood, N.J.). Data is reported as the net SFC per 5×10^4 cells after subtracting spots induced with the irrelevant HBV peptide.

central memory T cells [2] = assay: Cultured IFN-γ ELISPOT after 10-day in vitro stimulation of PBMC, phase 1/2 NSCLC trial of OSE-2101; design: key to net SFC of vaccine positive CTL responses: —, indicates SFC response did not meet criteria and vaccine response was negative; conditions: for No. Positive Responses: 6 NSCLC patients
Protocol: as §1, §2, §3

central memory T cells [3] = assay: Central memory T cell cultured ELISPOT, phase 2 trial in advanced NSCLC
Protocol: CTL Immune responses measured though cultured Elispot. The immunogenicity was measured in Phase 2 clinical trial on cryopreserved PBMC from each test sample were thawed in 5% human culture medium (RPMI-1640 medium with 25 mM HEPES, supplemented with 5% human AB serum, 4 mM L-glutamine, 0.5 mM sodium pyruvate, 0.1 mM MEM non-essential amino acids, 100 μg/ml streptomycin, and 100 U/ml penicillin) containing 30 μg/ml DNAase. After centrifugation for 5 minutes at 1200 rpm, the cell pellets were resuspended in 5% human culture medium and washed 2 times. For the central Memory T cell cultured ELISPOT assay, 2×10^6/ml PBMC were placed in replicate wells in a 48-well plates and stimulated for 10 days with 10 μg/ml of each peptide. As a positive control, PBMC were also stimulated with a pool of recall viral peptides. Human rIL2 (10 U/ml) was added to the peptide-stimulated cultures at day 1, day 4 and day 7. After 10 days the stimulated cells were harvested and plated at a concentration of 5×10^4/well. Assay wells also received irradiated autologous PBMC (1×10^5/well) and 10 μg/ml peptide, either the vaccine peptide, irrelevant peptide or positive control peptides. Cells stimulated in vitro with each analog epitope were also tested against the corresponding wild-type epitope.
Data analysis and acceptance criteria. Mean and standard deviation (SD) of spots in replicate wells were calculated in all assays by transferring raw ELISPOT data from each experiment to an Excel-based computer program. Positive vaccine-induced T-cell responses were determined according to the criteria described below.
Acceptance Criteria for peptide-Induced specific T-cell response through central memory T cells: The positive criteria for CTL responses used in the phase 2 trial was identical to the criteria in the phase 1/2 trials which was established prospectively after analyzing the variability of pre-treatment responses in patients against each vaccine epitope and the irrelevant HBV control epitope. A positive peptide-induced CTL/T memory response to a given epitope met all of the following conditions: 1) was greater than 5 SFC above the irrelevant epitope response, 2) was greater than the mean SFC of the irrelevant epitope response, plus 2 SD, and 3) was two-fold greater than the SFC response in the pre-vaccination sample from the same patient, plus 2 SD. The inclusion of “plus two standard deviations” was used to accommodate the assay variability and served to increase the criteria stringency.

With SMPPPGTRV [p53.149M2 A] the “Mean SFC” value (central memory T cells [1]; 10 colon patients, Week 9) was 18.0 SFC per 50,000 cells, the “net SFC of vaccine positive CTL responses” value (“net SFC” below) (central memory T cells [1]; colon patient 551, Week 9) was “—” and the “net SFC” value (central memory T cells [1]; colon patient 551, Week 18) was “—”. For the same sequence, the “net SFC” value (central memory T cells [1]; colon patient 601, Week 9) was “—”, the “net SFC” value (central memory T cells [1]; colon patient 601, Week 18) was “—” and the “net SFC” value (central memory T cells [1]; colon patient 602, Week 9) was “—”. For the same sequence, the “net SFC” value (central memory T cells [1]; colon patient 602, Week 18) was “—”, the “net SFC” value (central memory T cells [1]; colon patient 603, Week 9) was “—” and the “net SFC” value (central memory T cells [1]; colon patient 603, Week 18) was “—”. The “net SFC” value (central memory T cells [1]; colon patient 604, Week 9) was “—”, the “net SFC” value (central memory T cells [1]; colon patient 604, Week 18) was “—” and the “net SFC” value (central memory T cells [1]; colon patient 605, Week 9) was “—”. The “net SFC” value (central memory T cells [1]; colon patient 605, Week 18) was “—”, the “net SFC” value (central memory T cells [1]; colon patient 606, Week 9) was “—” and the “net SFC” value (central memory T cells [1]; colon patient 606, Week 18) was “—”. The “net SFC” value (central memory T cells [1]; colon patient 607, Week 9) was “—”, the “net SFC” value (central memory T cells [1]; colon patient 607, Week 18) was “—” and the “net SFC” value (central memory T cells [1]; colon patient 608, Week 9) was 18.0 SFC per 50,000 cells. The “net SFC” value (central memory T cells [1]; colon patient 608, Week 18) was “—”, the “net SFC” value (central memory T cells [1]; colon patient 609, Week 9) was “—” and the “net SFC” value (central memory T cells [1]; colon patient 609, Week 18) was “—”. The “No. Positive Responses” value (central memory T cells [2]; Week 9) was 0, the “No. Positive Responses” value (central memory T cells [2]; Week 18) was 0 and the “net SFC” value (central memory T cells [2]; NSCLC patient 201, Week 9) was “—”. For the same sequence, the “net SFC” value (central memory T cells [2]; NSCLC patient 201, Week 18) was “—”, the “net SFC” value (central memory T cells [2]; NSCLC patient 502, Week 9) was “—” and the “net SFC” value (central memory T cells [2]; NSCLC patient 502, Week 18) was “—”. For the same sequence, the “net SFC” value (central memory T cells [2]; NSCLC patient 504, Week 9) was “—”, the “net SFC” value (central memory T cells [2]; NSCLC patient 504, Week 18) was “—” and the “net SFC” value (central memory T cells [2]; NSCLC patient 505, Week 9) was “—”. The “net SFC” value (central memory T cells [2]; NSCLC patient 505, Week 18) was “—”, the “net SFC” value (central memory T cells [2]; NSCLC patient 532, Week 9) was “—” and the “net SFC” value (central memory T cells [2]; NSCLC patient 532, Week 18) was “—”. The “net SFC” value (central memory T cells [2]; NSCLC patient 651, Week 9) was “—”, the “net SFC” value (central memory T cells [2]; NSCLC patient 651, Week 18) was “—” and the “% of patients with positive CTL/central memory T cell response” value (central memory T cells [3]; phase 2, month 9) was 0%. The “patients with positive CTL/central memory T cell response / patients tested” value (central memory T cells [3]; phase 2, month 9) was 0/7, the “% of patients with positive CTL/central memory T cell response” value (central memory T cells [3]; phase 2, month 12) was 0% and the “patients with positive CTL/central memory T cell response / patients tested” value (central memory T cells [3]; phase 2, month 12) was 0/4. The “% of patients with positive CTL/central memory T cell response” value (central memory T cells [3]; phase 2, week 9) was 9%, the “patients with positive CTL/central memory T cell response / patients tested” value (central memory T cells [3]; phase 2, week 9) was 1/11 and the “% of patients with positive CTL/central memory T cell response” value (central memory T cells [3]; phase 2, week 18) was 0%. For the same sequence, the “patients with positive CTL/central memory T cell response / patients tested” value (central memory T cells [3]; phase 2, week 18) was 0/11, the “% of patients with positive CTL/central memory T cell response” value (central memory T cells [3]; phase 2, week 30) was 0% and the “patients with positive CTL/central memory T cell response / patients tested” value (central memory T cells [3]; phase 2, week 30) was 0/6.
